# Biological target: recombinant human CETP protein (Homo sapiens (Human), UniProt P11597)
# Experiment: Test of CETP inhibition activity (in vitro, buffer-based)
# Format: biochemical
# Conditions: reconstituted HDL with [14C]-labeled cholesteryl ester, acceptor lipoprotein, 37° C.
# Experimental: Test of CETP Inhibition Activity (In Vitro, Buffer-Based)
# (1) Preparation of Reconstituted HDL
# Cholesterol (1.125 μmol), phosphatidyl choline (4.5 μmol) and [^14C]-labeled cholesteryl ester (2.0 μCi; 40 μl) were taken in a glass test tube and well mixed with a vortex, and dried under a nitrogen gas current so that it formed a thin film. The obtained mixture was dissolved in ethanol (200 μl), which was designated as Solution A. A PBS solution [a mixed solution of Na2HPO4 (30 mM), KH2PO4 (8.8 mM), NaCl (60 mM) and EDTA (pH 7.4; 0.67 mM); 4 ml] was taken in a tube and the reaction solution was vigorously stirred with a vortex under a nitrogen current. The above-described Solution A was gently injected into this mixture with a syringe and the reaction solution was vigorously stirred with a vortex for 5 minutes under a nitrogen current. Sodium cholate ([…]; 0.38 ml) was added to the obtained mixture and the reaction solution was stirred for 2 minutes. ApoA-I protein (3 mg) was added to the obtained mixture and the reaction solution was stirred for 2 minutes. The obtained mixture was adjusted to 5 ml with the PBS solution and then dialyzed with the PBS solution. The obtained mixture was designated as the reconstituted HDL.
# (2) Preparation of Acceptor Lipoprotein
# NaBr was added to the plasma of a healthy person and the density of the mixture was adjusted to 1.019, and the mixture was subjected to density gradient centrifugation (40000 rpm, for 16 hours) to remove the fraction having a density of less than 1.019. NaBr was added to the obtained mixture and the density of the solution was adjusted to 1.063, and the solution was subjected to density gradient centrifugation (40000 rpm, 18 hours) to provide the fraction consisting of IDL (intermediate density lipoprotein) and LDL (1.019<density<1.063). The obtained fraction was dialyzed with the PBS solution. The obtained mixture was designated as the acceptor lipoprotein.
# (3) Measurement of CETP Inhibition Activity
# A recombinant human CETP protein (manufactured by Roar Biomedical Inc.; 4.5 ng), the acceptor lipoprotein described in (2) above (32.5 μg) and 5,5′-dithio-bis-(2-nitrobenzoic acid) (7 mM, 15 μl) were taken in a 96 well plate and the total amount of the mixture was adjusted to 48.5 μl with the PBS solution. The test compound [DMSO solution (concentration: 0.15, 0.5, 1.5, 5, 15, 50, 150 and 500 μM; 1.5 μl] was added to each well and the mixture was incubated in a thermostatic bath at 37° C. for 60 minutes. The reconstituted HDL (50 μl) described in (1) above was added to each well and the mixture was reacted in a thermostatic bath at 37° C. for 60 minutes. The 96 well plate was moved onto ice and a precipitation reagent [a mixed solution of magnesium chloride (60 mM) and 0.1% dextran sulfate [1/1 (v/v)]; 15 μl] was added to each well, and then the mixture was allowed to stand on ice for 15 minutes. The reaction solution (80 μl) in each well was moved to a filter plate and centrifuged at 1500 rpm for 1 minute, and the filtrate which passed through the filter was designated as the HDL fraction and the radioactivity thereof was measured with a scintillation counter. The percentage decrease in radioactivity in the case where the test compound was added in comparison with that in case where the test compound was not added was designated as the percentage CETP inhibition. The IC50 value was calculated from the percentage CETP inhibition.
# recombinant human CETP protein, sequence (P11597 18-493): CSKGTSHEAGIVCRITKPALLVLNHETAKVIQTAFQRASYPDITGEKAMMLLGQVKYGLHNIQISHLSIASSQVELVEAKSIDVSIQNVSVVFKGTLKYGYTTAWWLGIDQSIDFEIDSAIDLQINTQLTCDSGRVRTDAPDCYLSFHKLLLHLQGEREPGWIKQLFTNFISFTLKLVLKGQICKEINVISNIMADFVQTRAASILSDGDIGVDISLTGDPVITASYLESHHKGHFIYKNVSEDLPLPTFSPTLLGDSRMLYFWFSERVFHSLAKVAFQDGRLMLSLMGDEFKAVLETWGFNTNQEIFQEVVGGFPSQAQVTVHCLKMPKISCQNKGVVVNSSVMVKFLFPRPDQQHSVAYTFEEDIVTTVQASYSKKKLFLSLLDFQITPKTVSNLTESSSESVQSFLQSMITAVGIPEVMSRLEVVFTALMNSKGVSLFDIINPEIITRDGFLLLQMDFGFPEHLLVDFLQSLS
row,IC50,SMILES
1,83 nM,"CC1(C)Cc2nc(C3CCN(c4ncccn4)CC3)c([C@@H](F)c3ccc(C(F)(F)F)cc3)c(C3CCC(F)(F)CC3)c2[C@@H](O)C1 (single isomer, unassigned) [Example 1, (−)-4-(4,4-Difluorocyclohexyl)-3-{fluoro[4-(trifluoromethyl)phenyl]methyl}-7,7-dimethyl-2-[1-(pyrimidin-2-yl)-piperidin-4-yl]-5,6,7,8-tetrahydroquinolin-5-ol]"
2,51 nM,"COc1cnc(N2CCC(c3nc4c(c(C5CCC(F)(F)CC5)c3[C@@H](F)c3ccc(C(F)(F)F)cc3)[C@@H](O)CC(C)(C)C4)CC2)nc1 (single isomer, unassigned) [Example 3, (−)-4-(4,4-Difluorocyclohexyl)-3-{fluoro[4-(trifluoromethyl)phenyl]methyl}-2-[1-(5-methoxypyrimidin-2-yl)piperidin-4-yl]-7,7-dimethyl-5,6,7,8-tetrahydroquinolin-5-ol]"
3,73 nM,"CC1(C)Cc2nc(C3CCN(c4ncc(O)cn4)CC3)c([C@@H](F)c3ccc(C(F)(F)F)cc3)c(C3CCC(F)(F)CC3)c2[C@@H](O)C1 (single isomer, unassigned) [Example 4, (−)-4-(4,4-Difluorocyclohexyl)-3-{fluoro[4-(trifluoromethyl)phenyl]methyl}-2-[1-(5-hydroxypyrimidin-2-yl)piperidin-4-yl]-7,7-dimethyl-5,6,7,8-tetrahydroquinolin-5-ol]"
4,250 nM,"CC1(C)Cc2nc(C3CCN(c4ncc(N5CCOCC5)cn4)CC3)c([C@@H](F)c3ccc(C(F)(F)F)cc3)c(C3CCC(F)(F)CC3)c2[C@@H](O)C1 (single isomer, unassigned) [Example 5, (−)-4-(4,4-Difluorocyclohexyl)-3-{fluoro[4-(trifluoromethyl)phenyl]methyl}-7,7-dimethyl-2-{1-[5-(morpholin-4-yl)pyrimidin-2-yl]piperidin-4-yl}-5,6,7,8-tetrahydroquinolin-5-ol]"
5,66 nM,"CC1(C)Cc2nc(C3CCN(c4ncc(N5CCCCC5)cn4)CC3)c([C@@H](F)c3ccc(C(F)(F)F)cc3)c(C3CCC(F)(F)CC3)c2[C@@H](O)C1 (single isomer, unassigned) [Example 6, (−)-4-(4,4-Difluorocyclohexyl)-3-{fluoro[4-(trifluoromethyl)phenyl]methyl}-7,7-dimethyl-2-{1-[5-(piperidin-1-yl)pyrimidin-2-yl]piperidin-4-yl}-5,6,7,8-tetrahydroquinolin-5-ol]"
6,19 nM,"CN1CCN(c2cnc(N3CCC(c4nc5c(c(C6CCC(F)(F)CC6)c4[C@@H](F)c4ccc(C(F)(F)F)cc4)[C@@H](O)CC(C)(C)C5)CC3)nc2)CC1 (single isomer, unassigned) [Example 8, (−)-4-(4,4-Difluorocyclohexyl)-3-{fluoro[4-(trifluoromethyl)phenyl]methyl}-7,7-dimethyl-2-{1-[5-(4-methylpiperazin-1-yl)pyrimidin-2-yl]piperidin-4-yl}-5,6,7,8-tetrahydroquinolin-5-ol]"
7,122 nM,"CC1(C)Cc2nc(C3CCN(c4ncc(N5CCSCC5)cn4)CC3)c([C@@H](F)c3ccc(C(F)(F)F)cc3)c(C3CCC(F)(F)CC3)c2[C@@H](O)C1 (single isomer, unassigned) [Example 9, (−)-4-(4,4-Difluorocyclohexyl)-3-{fluoro[4-(trifluoromethyl)phenyl]methyl}-7,7-dimethyl-2-{1-[5-(thiomorpholin-4-yl)pyrimidin-2-yl]piperidin-4-yl}-5,6,7,8-tetrahydroquinolin-5-ol]"
8,46 nM,"CC1(C)Cc2nc(C3CCN(c4ncc(N5CCC(O)CC5)cn4)CC3)c([C@@H](F)c3ccc(C(F)(F)F)cc3)c(C3CCC(F)(F)CC3)c2[C@@H](O)C1 (single isomer, unassigned) [Example 11, (−)-4-(4,4-Difluorocyclohexyl)-3-{fluoro[4-(trifluoromethyl)phenyl]methyl}-2-{1-[5-(4-hydroxypiperidin-1-yl)pyrimidin-2-yl]piperidin-4-yl}-7,7-dimethyl-5,6,7,8-tetrahydroquinolin-5-ol]"
9,103 nM,"CC(C)c1cnc(N2CCC(c3nc4c(c(C5CCC(F)(F)CC5)c3[C@@H](F)c3ccc(C(F)(F)F)cc3)[C@@H](O)CC(C)(C)C4)CC2)nc1 (single isomer, unassigned) [Example 12, 4-(4,4-Difluorocyclohexyl)-3-{fluoro[4-(trifluoromethyl)phenyl]methyl}-7,7-dimethyl-2-{1-[5-(propan-2-yl)pyrimidin-2-yl]piperidin-4-yl}-5,6,7,8-tetrahydroquinolin-5-ol]"
10,97 nM,"CC(C)Oc1cnc(N2CCC(c3nc4c(c(C5CCC(F)(F)CC5)c3[C@@H](F)c3ccc(C(F)(F)F)cc3)[C@@H](O)CC(C)(C)C4)CC2)nc1 (single isomer, unassigned) [Example 14, (−)-4-(4,4-Difluorocyclohexyl)-3-{fluoro[4-(trifluoromethyl)phenyl]methyl}-7,7-dimethyl-2-{1-[5-(propan-2-yloxy)pyrimidin-2-yl]piperidin-4-yl}-5,6,7,8-tetrahydroquinolin-5-ol]"
11,243 nM,"CCCCCc1cnc(N2CCC(c3nc4c(c(C5CCC(F)(F)CC5)c3[C@@H](F)c3ccc(C(F)(F)F)cc3)[C@@H](O)CC(C)(C)C4)CC2)nc1 (single isomer, unassigned) [Example 16, (−)-4-(4,4-Difluorocyclohexyl)-3-{fluoro[4-(trifluoromethyl)phenyl]methyl}-7,7-dimethyl-2-[1-(5-pentylpyrimidin-2-yl)piperidin-4-yl]-5,6,7,8-tetrahydroquinolin-5-ol]"
12,217 nM,"CC1(C)Cc2nc(C3CCN(c4ncc(C#N)cn4)CC3)c([C@@H](F)c3ccc(C(F)(F)F)cc3)c(C3CCC(F)(F)CC3)c2[C@@H](O)C1 (single isomer, unassigned) [Example 17, (−)-2-[1-(5-cyanopyrimidine-2-yl)piperidin-4-yl]-4-(4,4-difluorocyclohexyl)-3-{fluoro[4-(trifluoromethyl)phenyl]methyl}-7,7-dimethyl-5,6,7,8-tetrahydroquinoline-5-ol]"
13,177 nM,"CC1(C)Cc2nc(C3CCN(c4ncc(C5=CCCCC5)cn4)CC3)c([C@@H](F)c3ccc(C(F)(F)F)cc3)c(C3CCC(F)(F)CC3)c2[C@@H](O)C1 (single isomer, unassigned) [Example 18, (−)-2-{1-[5-(Cyclohex-1-ene-1-yl)pyrimidin-2-yl]piperidin-4-yl}-4-(4,4-difluorocyclohexyl)-3-{fluoro[4-(trifluoromethyl)phenyl]methyl}-7,7-dimethyl-5,6,7,8-tetrahydroquinolin-5-ol]"
14,198 nM,"CC1(C)Cc2nc(C3CCN(c4ncc(C5CC5)cn4)CC3)c([C@@H](F)c3ccc(C(F)(F)F)cc3)c(C3CCC(F)(F)CC3)c2[C@@H](O)C1 (single isomer, unassigned) [Example 19, (−)-2-[1-(5-Cyclopropylpyrimidin-2-yl)piperidin-4-yl]-4-(4,4-difluorocyclohexyl)-3-{fluoro[4-(trifluoromethyl)phenyl]methyl}-7,7-dimethyl-5,6,7,8-tetrahydroquinolin-5-ol]"
15,99 nM,"CC(C)COc1cnc(N2CCC(c3nc4c(c(C5CCC(F)(F)CC5)c3[C@@H](F)c3ccc(C(F)(F)F)cc3)[C@@H](O)CC(C)(C)C4)CC2)nc1 (single isomer, unassigned) [Example 21, (−)-4-(4,4-difluorocyclohexyl)-3-{fluoro[4-(trifluoromethyl)phenyl]methyl}-7,7-dimethyl-2-{1-[5-(2-methylpropoxy)pyrimidine-2-yl]piperidin-4-yl}-5,6,7,8-tetrahydroquinoline-5-ol]"

# Source: patent publication US9187450B2, “Substituted pyridine compound” (Daiichi Sankyo Company, Limited, priority 2010, dated 2015)
